Measurements taken from paper PMC11822212, “High-throughput screening identifies Aurora kinase B as a critical therapeutic target for Merkel cell carcinoma” (Nature Communications, 2025).
Where “and” joins values, the source holds several entries; their conditions need not be identical. Identical values can stand only once. Like-named read-outs stand apart in the source and are kept apart here.

Columns and labels:
Experiment in all cases: qHTS cell viability (CellTiter-Glo, 72 h; primary and follow-up small molecule screen)
Type in all cases: cell-based, human
MCC13 cells (VN-MCC) = tested on: MCC13 cells (VN-MCC)
MKL-1 cells (VP-MCC) = tested on: MKL-1 cells (VP-MCC)
UISO cells (VN-MCC) = tested on: UISO cells (VN-MCC)
WAGA cells (VP-MCC) = tested on: WAGA cells (VP-MCC)
MKL-2 cells (VP-MCC) = tested on: MKL-2 cells (VP-MCC)
MCC26 cells (VN-MCC) = tested on: MCC26 cells (VN-MCC)
[1] = follow-up screen, MCC13, replicate 1
[2] = follow-up screen, MCC13, replicate 2
[3] = follow-up screen, MCC13, replicate 3
[4] = follow-up screen, MKL-1, replicate 1
[5] = follow-up screen, MKL-1, replicate 2
[6] = follow-up screen, MKL-1, replicate 3
[7] = follow-up screen, UISO, replicate 1
[8] = follow-up screen, UISO, replicate 2
[9] = follow-up screen, UISO, replicate 3
[10] = follow-up screen, WAGA, replicate 1
[11] = follow-up screen, WAGA, replicate 2
[12] = follow-up screen, WAGA, replicate 3
[13] = follow-up screen, MKL-2, replicate 1
[14] = follow-up screen, MKL-2, replicate 2
[15] = follow-up screen, MKL-2, replicate 3
[16] = follow-up screen, MCC26, replicate 1
[17] = follow-up screen, MCC26, replicate 2
[18] = follow-up screen, MCC26, replicate 3

Row | SMILES | Area under the dose-response curve (AUC) MCC13 Replicate 1 (MCC13 cells (VN-MCC); [1]) | Area under the dose-response curve (AUC) MCC13 Replicate 2 (MCC13 cells (VN-MCC); [2]) | Area under the dose-response curve (AUC) MCC13 Replicate 3 (MCC13 cells (VN-MCC); [3]) | Area under the dose-response curve (AUC) MKL-1 Replicate 1 (MKL-1 cells (VP-MCC); [4]) | Area under the dose-response curve (AUC) MKL-1 Replicate 2 (MKL-1 cells (VP-MCC); [5]) | Area under the dose-response curve (AUC) MKL-1 Replicate 3 (MKL-1 cells (VP-MCC); [6]) | Area under the dose-response curve (AUC) UISO Replicate 1 (UISO cells (VN-MCC); [7]) | Area under the dose-response curve (AUC) UISO Replicate 2 (UISO cells (VN-MCC); [8]) | Area under the dose-response curve (AUC) UISO Replicate 3 (UISO cells (VN-MCC); [9]) | Area under the dose-response curve (AUC) WAGA Replicate 1 (WAGA cells (VP-MCC); [10]) | Area under the dose-response curve (AUC) WAGA Replicate 2 (WAGA cells (VP-MCC); [11]) | Area under the dose-response curve (AUC) WAGA Replicate 3 (WAGA cells (VP-MCC); [12]) | Area under the dose-response curve (AUC) MKL-2 Replicate 1 (MKL-2 cells (VP-MCC); [13]) | Area under the dose-response curve (AUC) MKL-2 Replicate 2 (MKL-2 cells (VP-MCC); [14]) | Area under the dose-response curve (AUC) MKL-2 Replicate 3 (MKL-2 cells (VP-MCC); [15]) | Area under the dose-response curve (AUC) MCC26 Replicate 1 (MCC26 cells (VN-MCC); [16]) | Area under the dose-response curve (AUC) MCC26 Replicate 2 (MCC26 cells (VN-MCC); [17]) | Area under the dose-response curve (AUC) MCC26 Replicate 3 (MCC26 cells (VN-MCC); [18]) | further results
1 | COc1ccc2cc3[n+](cc2c1OC)CCc1cc2c(cc1-3)OCO2 [Berberine] | 398.2 | 416.5 | 443.1 | 311.8 | 310.8 | 306.9 | 307.5 | 333.0 | 307.0 | 314.6 | 371.3 | 307.0 | 282.0 | 271.5 | 295.9 | 384.2 | 304.3 | 382.1 | 
2 | C[C@H]1CCC/C=C/[C@@H]2C[C@H](OC(=O)CN(C)C)C[C@H]2[C@H](O)/C=C/C(=O)O1 [Breflate] |  |  |  |  |  |  |  |  |  |  |  |  |  |  |  |  |  |  | Area under the dose-response curve (AUC) MCC13 Replicate 1 (MCC13 cells (VN-MCC)): 301.4; Area under the dose-response curve (AUC) MCC13 Replicate 2 (MCC13 cells (VN-MCC)): 313.0; Area under the dose-response curve (AUC) MCC13 Replicate 3 (MCC13 cells (VN-MCC)): 291.5; Area under the dose-response curve (AUC) MKL-1 Replicate 1 (MKL-1 cells (VP-MCC)): 284.7; Area under the dose-response curve (AUC) MKL-1 Replicate 2 (MKL-1 cells (VP-MCC)): 297.0; Area under the dose-response curve (AUC) MKL-1 Replicate 3 (MKL-1 cells (VP-MCC)): 286.8; Area under the dose-response curve (AUC) UISO Replicate 1 (UISO cells (VN-MCC)): 287.6; Area under the dose-response curve (AUC) UISO Replicate 2 (UISO cells (VN-MCC)): 297.1; Area under the dose-response curve (AUC) UISO Replicate 3 (UISO cells (VN-MCC)): 295.8; Area under the dose-response curve (AUC) WAGA Replicate 1 (WAGA cells (VP-MCC)): 298.7; Area under the dose-response curve (AUC) WAGA Replicate 2 (WAGA cells (VP-MCC)): 274.6; Area under the dose-response curve (AUC) WAGA Replicate 3 (WAGA cells (VP-MCC)): 278.0; Area under the dose-response curve (AUC) MKL-2 Replicate 1 (MKL-2 cells (VP-MCC)): 314.0; Area under the dose-response curve (AUC) MKL-2 Replicate 2 (MKL-2 cells (VP-MCC)): 292.1; Area under the dose-response curve (AUC) MKL-2 Replicate 3 (MKL-2 cells (VP-MCC)): 266.7; Area under the dose-response curve (AUC) MCC26 Replicate 1 (MCC26 cells (VN-MCC)): 324.6; Area under the dose-response curve (AUC) MCC26 Replicate 2 (MCC26 cells (VN-MCC)): 334.5; Area under the dose-response curve (AUC) MCC26 Replicate 3 (MCC26 cells (VN-MCC)): 272.7
3 | C[C@]12CC[C@H](O)C[C@H]1CC[C@@H]1[C@@H]2CC[C@]2(C)[C@@H](c3ccc(=O)oc3)CC[C@]12O [Bufalin] |  |  |  |  |  |  |  |  |  |  |  |  |  |  |  |  |  |  | Area under the dose-response curve (AUC) (MCC13 cells (VN-MCC)): 246.2 and 243.7 and 237.7; Area under the dose-response curve (AUC) (MKL-1 cells (VP-MCC)): 317.9 and 310.4 and 298.2; Area under the dose-response curve (AUC) (UISO cells (VN-MCC)): 235.9 and 234.7 and 201.8; Area under the dose-response curve (AUC) (WAGA cells (VP-MCC)): 311.5 and 289.3 and 286.6; Area under the dose-response curve (AUC) (MKL-2 cells (VP-MCC)): 316.9 and 287.6 and 264.0; Area under the dose-response curve (AUC) (MCC26 cells (VN-MCC)): 270.7 and 302.4 and 244.7
4 | CCCNC(=O)[C@H]1O[C@@H]1C(=O)N[C@H](C(=O)N1CCC[C@H]1C(=O)OC)C(C)CC (stereo partly drawn) [CA-074 Me] |  |  |  |  |  |  |  |  |  |  |  |  |  |  |  |  |  |  | Area under the dose-response curve (AUC) MCC13 Replicate 1 (MCC13 cells (VN-MCC)): 449.3; Area under the dose-response curve (AUC) MCC13 Replicate 2 (MCC13 cells (VN-MCC)): 470.8; Area under the dose-response curve (AUC) MCC13 Replicate 3 (MCC13 cells (VN-MCC)): 430.6; Area under the dose-response curve (AUC) MKL-1 Replicate 1 (MKL-1 cells (VP-MCC)): 343.4; Area under the dose-response curve (AUC) MKL-1 Replicate 2 (MKL-1 cells (VP-MCC)): 329.7; Area under the dose-response curve (AUC) MKL-1 Replicate 3 (MKL-1 cells (VP-MCC)): 317.3; Area under the dose-response curve (AUC) UISO Replicate 1 (UISO cells (VN-MCC)): 368.5; Area under the dose-response curve (AUC) UISO Replicate 2 (UISO cells (VN-MCC)): 355.5; Area under the dose-response curve (AUC) UISO Replicate 3 (UISO cells (VN-MCC)): 334.3; Area under the dose-response curve (AUC) WAGA Replicate 1 (WAGA cells (VP-MCC)): 383.1; Area under the dose-response curve (AUC) WAGA Replicate 2 (WAGA cells (VP-MCC)): 375.3; Area under the dose-response curve (AUC) WAGA Replicate 3 (WAGA cells (VP-MCC)): 378.5; Area under the dose-response curve (AUC) MKL-2 Replicate 1 (MKL-2 cells (VP-MCC)): 305.9; Area under the dose-response curve (AUC) MKL-2 Replicate 2 (MKL-2 cells (VP-MCC)): 306.4; Area under the dose-response curve (AUC) MKL-2 Replicate 3 (MKL-2 cells (VP-MCC)): 348.6; Area under the dose-response curve (AUC) MCC26 Replicate 1 (MCC26 cells (VN-MCC)): 401.2; Area under the dose-response curve (AUC) MCC26 Replicate 2 (MCC26 cells (VN-MCC)): 420.5; Area under the dose-response curve (AUC) MCC26 Replicate 3 (MCC26 cells (VN-MCC)): 371.8
5 | Cc1nc2ccc(-n3ncc(C(=O)c4cc5ccccc5[nH]4)c3N)cc2[nH]1 [CH5183284 (Debio-1347)] |  |  |  |  |  |  |  |  |  |  |  |  |  |  |  |  |  |  | Area under the dose-response curve (AUC) (MCC13 cells (VN-MCC)): 509.3 and 491.7 and 491.1; Area under the dose-response curve (AUC) (MKL-1 cells (VP-MCC)): 508.7 and 488.2 and 500.7; Area under the dose-response curve (AUC) (UISO cells (VN-MCC)): 433.7 and 424.4 and 430.0; Area under the dose-response curve (AUC) (WAGA cells (VP-MCC)): 493.1 and 498.3 and 457.6; Area under the dose-response curve (AUC) (MKL-2 cells (VP-MCC)): 485.9 and 459.2 and 468.2; Area under the dose-response curve (AUC) (MCC26 cells (VN-MCC)): 405.6 and 395.0 and 403.7
6 | CC[C@@]1(O)C(=O)OCc2c1cc1n(c2=O)Cc2cc3ccccc3nc2-1 [Camptothecin] | 224.5 | 221.7 | 254.2 | 168.7 | 185.9 | 170.7 | 151.6 | 176.2 | 177.2 | 164.4 | 180.7 | 159.3 | 160.6 | 161.3 | 224.5 | 203.3 | 207.4 | 184.6 | 
7 | COCc1c(C(C)C)nc(C(C)C)c(/C=C/[C@@H](O)C[C@@H](O)CC(=O)O)c1-c1ccc(F)cc1 [Cerivastatin sodium] | 319.0 | 316.5 | 320.7 | 337.1 | 326.8 | 335.0 | 255.3 | 261.7 | 240.8 | 385.6 | 358.6 | 363.6 | 362.8 | 331.4 | 356.5 | 312.2 | 285.4 | 322.6 | 
8 | COc1ccc2c(c[n+](C)c3c4cc5c(cc4ccc23)OCO5)c1OC [Chelerythrine chloride] | 404.1 | 410.9 | 433.8 | 325.9 | 295.9 | 331.6 | 417.2 | 419.6 | 390.8 | 387.5 | 415.9 | 372.6 | 317.6 | 350.5 | 338.8 | 384.2 | 379.8 | 390.1 | 
